Data published in patent publication US20240350488A1, “METHODS OF TREATING SWI/SNF DEREGULATED CANCERS” (Fred Hutchinson Cancer Center, priority 2023, published 2024).

How the values were obtained:
[1] = system: Arid1a^fl/fl mouse urothelium; experiment: γH2AX and CC3 staining of Arid1a^fl/fl urothelium, A-484954 pretreatment before 9-day BBN; type: in vivo; conditions: Arid1a^fl/fl mice pretreated with A-484954 before a 9-day course of BBN
Description: (§1) Bladder samples were collected, fixed in 4% paraformaldehyde (PFA), dehydrated with ethanol, and embedded in paraffin wax. Paraffin blocks were sectioned (5 μm) using a rotary microtome and hematoxylin and eosin (H&E) stained. Immunohistochemistry (IHC) staining was performed after rehydrating the tissue. In brief, antigen retrieval was performed by preheating in sodium citrate buffer (pH 6.0 or pH 9) solution for 7-30 minutes at 95° C.-125° C. in a pressure cooker. Hydrogen peroxidase (Vector Laboratories) treatment was done for 5 minutes to quench endogenous peroxides. Tissue was blocked in 1% BSA for 1 hour. Primary antibodies were applied and incubated at room temperature for 1 hour in a humidified chamber followed by secondary antibody (EnVision™ system HRP-labeled polymer, Dako, K4003). Color development was achieved by applying 3,3′-diaminobenzidine (DAB) solution (Agilent Technology) for 2 to 5 minutes, depending on the primary antibody. The sections were counterstained with hematoxylin (Agilent Technology), washed, and cover-slipped using aqueous-based mounting medium (Agilent Technology). All IHC slides were scanned using Aperio ScanScope AT Turbo (Leica Biosystems). […]

eEF2K = biological target: T1, eEF2K (Mus musculus, UniProt O08796); experiment: IHC of phospho-eEF2 (T56) in Arid1a^fl/fl mice after eEF2K inhibitor treatment; type: in vivo; conditions: A-484954 10 mg/kg IP daily for 15 days
T1 construct: from tissue; host or cells: bladder urothelium of Arid1a^fl/fl mice dosed in vivo
T1 sequence (O08796 1-724): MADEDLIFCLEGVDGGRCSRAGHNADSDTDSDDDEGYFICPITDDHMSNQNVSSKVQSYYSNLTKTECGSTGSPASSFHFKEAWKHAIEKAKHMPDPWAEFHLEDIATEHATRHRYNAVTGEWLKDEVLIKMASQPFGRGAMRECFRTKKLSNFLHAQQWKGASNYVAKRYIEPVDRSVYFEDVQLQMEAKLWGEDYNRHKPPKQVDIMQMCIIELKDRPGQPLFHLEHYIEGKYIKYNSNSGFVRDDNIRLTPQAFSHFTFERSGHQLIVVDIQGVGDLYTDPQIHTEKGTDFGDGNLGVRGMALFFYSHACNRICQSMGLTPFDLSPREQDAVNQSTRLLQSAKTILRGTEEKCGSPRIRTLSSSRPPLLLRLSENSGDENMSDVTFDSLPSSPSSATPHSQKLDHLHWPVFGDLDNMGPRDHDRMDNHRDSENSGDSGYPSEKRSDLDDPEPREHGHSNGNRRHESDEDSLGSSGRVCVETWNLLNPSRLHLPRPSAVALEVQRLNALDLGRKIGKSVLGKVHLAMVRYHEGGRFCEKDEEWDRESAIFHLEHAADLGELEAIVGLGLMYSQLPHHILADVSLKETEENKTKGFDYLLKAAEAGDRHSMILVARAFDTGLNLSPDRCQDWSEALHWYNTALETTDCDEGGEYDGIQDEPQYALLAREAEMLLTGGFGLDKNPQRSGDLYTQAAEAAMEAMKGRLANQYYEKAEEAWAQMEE
Description: as §1

[2] = system: protein synthesis in Arid1a^fl/fl bladders; experiment: In vivo puromycin incorporation assay in Arid1a^fl/fl mice after eEF2K inhibitor treatment; parameters: species or system mouse; conditions: A-484954 10 mg/kg IP daily for 15 days
Description: Immunofluorescent (IF) staining was performed in the following manner. Antigen retrieval was conducted by preheating in sodium citrate buffer (pH 6.0) for 30 minutes at 95° C. in a pressure cooker. Tissue was blocked in 1% BSA solution for 2 hours or in M.O.M® blocking reagent (Vector Laboratories) for 1 hour at room temperature, followed by blocking in 1% BSA solution for 2 hours. Primary antibodies were applied overnight at 4° C. in a humidified chamber, and secondary antibodies (Alexa Fluor® 594; Alexa Fluor® 488; or Alexa Fluor® 647 (Invitrogen)) were applied for 1 hour at room temperature. All IF slides were mounted using ProLong™ gold mounting media with DAPI (Fisher Scientific, P36935). IF slides were scanned using an Aperio Scanscope FL (Leica Biosystems). The following primary antibodies were used for IF study: anti-Cytokeratin 5 (Biolegend Inc), anti-puromycin (EMD Millipore), anti-p-eEF2K (S366) (Cell Signaling Technology), anti-ARID1A (Sigma), or anti-Cytokeratin 5 (Abcam). Image analysis was done using semiautomated image analysis software (HALO, Indica Labs).
For the in vivo puromycin incorporation assay, mice were injected i.p. with 200 μL of 2.5 mM puromycin (Fisher) and euthanized after 1 hour. For in vitro puromycin incorporation assay, cells were treated with 1 μM puromycin for 30 minutes at 37° C. […]

Rasgrp1 mRNA = experiment: QPCR of Rasgrp1 in Arid1a^fl/fl organoids after GSK126; type: cell-based, mouse; conditions: Arid1a^fl/fl cells; GSK126 12.5 μM
EZH2 = biological target: T2, EZH2 (Mus musculus, UniProt Q61188); experiment: H3K27me3 on the Rasgrp1 promoter in Arid1a^fl/fl organoids treated with EZH2 inhibitor; type: cell-based; conditions: Arid1a^fl/fl organoids treated with GSK126
T2 construct: endogenous in cells; host or cells: Arid1a^fl/fl mouse urothelial organoids
Description: CUT&Tag was performed following the published protocol, with some modifications. Briefly, cells were harvested and prepared into homogenous suspension in PBS, aliquoted with 10% DMSO and slow-frozen to −80° C. in isopropanol freezing chambers. CUT&Tag was performed with native nuclei. Cells were thawed at 37° C. for 1 minute, washed twice with PBS and centrifugation at 600×g for 3 minutes, and resuspended into ice-cold NE1 buffer (20 mM K-HEPES pH 7.9, 10 mM KCl, […], 20% Glycerol, 0.5 mM spermidine, and EDTA-free protease inhibitor). Cells were kept on ice for 10 minutes, centrifuged at 1400×g for 3 minutes using a swinging-bucket rotor, pellets were resuspended in Wash buffer (20 mM Na-HEPES pH 7.5, 150 mM NaCl, 0.5 mM spermidine, and EDTA-free protease inhibitor), nuclei were counted using Vi-CELL© Cell Viability Analyzer (Beckman Coulter) and aliquoted into 0.6 mL low-binding flip-cap tubes for CUT&Tag experiments.
500,000 nuclei were used for each CUT&Tag experiment targeting a histone posttranslational modification, while 200,000 nuclei were used for ARID1A. Bio-Mag®Plus Concanavalin A coated magnetic beads (Bangs Laboratories) were equilibrated with binding buffer (20 mM K-HEPES pH7.9, 10 mM KCl, and 1 mM each CaCl2 and MnCl2). To each sample, 10 μL of activated beads were added and held at room temperature for 5 minutes with occasional gentle mixing. […]

RASGRP1 protein = experiment: RASGRP1 IF in Arid1a^fl/fl organoids after GSK126; type: cell-based, mouse; conditions: Arid1a^fl/fl cells treated with GSK126
Description: Organoids were fixed using 4% PFA for 2 hours at room temperature on a shaker followed by a 30-minute incubation on ice to achieve complete removal of EHS. Intact organoids were collected as a pellet after centrifugation at 1400 rpm for 5 min and washed with ddH2O. The pellet was further washed with 0.2% BSA and organoids were mixed with HistoGel™ (Epredia). The organoid and HistoGel™ suspension was centrifuged at 1400 rpm for 5 minutes and kept on ice for 30 minutes. The solidified HistoGel™ structure was stored at 4° C. until ready for processing and paraffin embedding. Organoid sections ([…]) were deparaffinized in CitriSolv™ (Fisher, 4355121) for 10 minutes and rehydrated using 100% (2×), 90% (2×) and 70% (2×) ethanol for 5 minutes each. Antigen retrieval was performed by preheating in sodium citrate buffer (pH 6.0) solution for 10 minutes at 121° C. in a pressure cooker. Organoid sections were blocked in 1% BSA solution for 1 hour followed by overnight incubation in primary antibody (anti-RASGRP1: Fisher) at 4° C. in a humidified chamber. Secondary antibody (Alexa Fluor® 594: Invitrogen) incubation was performed for 1 hour at room temperature. All slides were mounted using ProLong™ gold mounting media with DAPI (Fisher Scientific, P36935). […]

eEF2 phosphorylation = experiment: Immunoblot of phospho-eEF2 and total eEF2 in Arid1a^fl/fl organoids +/- GSK126; type: cell-based, mouse
Description: Cell lysates were prepared using RIPA buffer (Fisher) containing phosphatase inhibitor (Sigma) and protease inhibitor cocktail (Sigma). The lysates were incubated on ice for 30 minutes with periodic mixing by vortex and centrifuged at 13,000×g at 4° C. for 10 minutes. The supernatants were subjected to SDS-PAGE and transferred to a PDVF membrane (Bio-Rad). Membranes were blocked with 5% milk for 1 hour at room temperature. Primary antibodies were diluted in 5% milk and incubated overnight at 4° C. Blots were incubated with horse radish peroxidase- (HRP-) conjugated secondary antibodies (goat anti-rabbit IgG (Fisher) or goat anti-mouse IgG (Fisher)) in 5% milk for 1 hour at room temperature. West Pico (Fisher) was used to detect immunoreactive bands on the blot using the ChemiDoc Touch Imaging System (Bio-Rad). […]

T2 sequence (Q61188 whole entry): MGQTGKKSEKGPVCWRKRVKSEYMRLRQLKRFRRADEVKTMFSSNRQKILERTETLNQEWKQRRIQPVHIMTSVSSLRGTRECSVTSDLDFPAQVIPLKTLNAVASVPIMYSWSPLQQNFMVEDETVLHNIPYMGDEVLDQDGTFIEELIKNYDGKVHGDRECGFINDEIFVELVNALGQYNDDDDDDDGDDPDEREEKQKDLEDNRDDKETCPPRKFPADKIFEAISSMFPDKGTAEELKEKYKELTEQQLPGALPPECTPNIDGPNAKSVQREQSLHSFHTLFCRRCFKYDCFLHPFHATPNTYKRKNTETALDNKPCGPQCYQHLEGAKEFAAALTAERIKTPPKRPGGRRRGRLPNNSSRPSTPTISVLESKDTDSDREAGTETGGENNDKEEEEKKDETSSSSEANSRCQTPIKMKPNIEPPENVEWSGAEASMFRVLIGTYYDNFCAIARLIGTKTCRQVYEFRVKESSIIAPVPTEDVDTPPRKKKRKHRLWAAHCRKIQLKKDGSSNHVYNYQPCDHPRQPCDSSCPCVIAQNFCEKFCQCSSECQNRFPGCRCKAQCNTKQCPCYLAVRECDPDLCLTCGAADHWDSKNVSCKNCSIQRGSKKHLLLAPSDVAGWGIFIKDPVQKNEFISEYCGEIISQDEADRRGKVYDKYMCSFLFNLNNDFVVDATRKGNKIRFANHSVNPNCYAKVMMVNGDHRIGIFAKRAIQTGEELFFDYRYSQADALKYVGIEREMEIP
T2 sequence (Q921E6 whole entry partner): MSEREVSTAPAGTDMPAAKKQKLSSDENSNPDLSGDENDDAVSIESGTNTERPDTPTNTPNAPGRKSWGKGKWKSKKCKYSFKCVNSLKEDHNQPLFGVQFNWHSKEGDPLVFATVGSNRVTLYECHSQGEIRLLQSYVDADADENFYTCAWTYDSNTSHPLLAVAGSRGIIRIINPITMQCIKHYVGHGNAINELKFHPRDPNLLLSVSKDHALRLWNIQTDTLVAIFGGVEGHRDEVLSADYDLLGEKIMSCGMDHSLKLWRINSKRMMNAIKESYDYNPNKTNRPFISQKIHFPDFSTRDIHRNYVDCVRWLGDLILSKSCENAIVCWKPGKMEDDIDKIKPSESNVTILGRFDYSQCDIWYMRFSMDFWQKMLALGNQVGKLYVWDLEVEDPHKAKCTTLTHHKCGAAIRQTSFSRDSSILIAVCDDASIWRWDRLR
T2 sequence (Q80U70 whole entry partner): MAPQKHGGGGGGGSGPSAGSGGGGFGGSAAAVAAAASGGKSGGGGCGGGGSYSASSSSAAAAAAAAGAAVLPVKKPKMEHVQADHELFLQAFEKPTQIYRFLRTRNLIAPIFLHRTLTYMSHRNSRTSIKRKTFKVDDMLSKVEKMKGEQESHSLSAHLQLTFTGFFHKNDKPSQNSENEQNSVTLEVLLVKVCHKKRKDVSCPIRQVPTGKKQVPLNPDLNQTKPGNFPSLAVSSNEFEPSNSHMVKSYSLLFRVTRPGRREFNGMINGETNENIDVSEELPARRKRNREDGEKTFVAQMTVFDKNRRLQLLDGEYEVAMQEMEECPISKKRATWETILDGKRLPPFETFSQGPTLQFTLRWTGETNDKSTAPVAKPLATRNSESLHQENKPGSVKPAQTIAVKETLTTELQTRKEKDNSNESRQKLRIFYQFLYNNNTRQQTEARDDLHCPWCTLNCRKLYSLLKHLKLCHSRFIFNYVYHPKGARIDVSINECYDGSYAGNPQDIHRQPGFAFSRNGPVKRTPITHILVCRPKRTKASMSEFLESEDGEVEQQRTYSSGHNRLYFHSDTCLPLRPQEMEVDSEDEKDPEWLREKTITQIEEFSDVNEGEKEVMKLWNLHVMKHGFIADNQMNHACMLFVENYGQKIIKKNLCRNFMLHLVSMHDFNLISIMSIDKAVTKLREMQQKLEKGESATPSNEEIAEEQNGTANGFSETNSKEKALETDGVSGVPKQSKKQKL
T2 sequence (Q60972 whole entry partner): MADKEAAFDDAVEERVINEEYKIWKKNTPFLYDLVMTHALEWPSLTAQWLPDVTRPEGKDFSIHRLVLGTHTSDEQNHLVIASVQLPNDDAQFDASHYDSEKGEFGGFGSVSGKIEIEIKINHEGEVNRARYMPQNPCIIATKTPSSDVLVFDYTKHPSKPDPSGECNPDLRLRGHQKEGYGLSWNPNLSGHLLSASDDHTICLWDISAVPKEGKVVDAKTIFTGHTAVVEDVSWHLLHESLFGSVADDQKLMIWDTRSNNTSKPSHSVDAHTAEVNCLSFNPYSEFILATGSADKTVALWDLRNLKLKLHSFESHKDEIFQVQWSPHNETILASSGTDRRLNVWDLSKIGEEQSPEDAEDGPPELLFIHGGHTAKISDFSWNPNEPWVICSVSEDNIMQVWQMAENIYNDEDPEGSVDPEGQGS

eEF2 phosphorylation (T56) (eEF2K) | H3K27me3 on the Rasgrp1 promoter (EZH2) | Structure (SMILES) | DNA damage (γH2AX) [1] | apoptosis (CC3) [1] | protein synthesis (puromycin incorporation) [2] | Rasgrp1 mRNA levels (Rasgrp1 mRNA) | RASGRP1 protein levels (RASGRP1 protein) | eEF2 phosphorylation (eEF2 phosphorylation)
attenuation of eEF2 phosphorylation |  | CCn1c(=O)c2cc(C(N)=O)c(N)nc2n(C2CC2)c1=O [A-484954] | markedly decreased | markedly decreased | restoration of protein synthesis |  |  | 
 | decreased H3K27me3 | CC[C@H](C)n1cc(C)c2c(C(=O)NCc3c(C)cc(C)[nH]c3=O)cc(-c3ccc(N4CCNCC4)nc3)cc21 [GSK126] |  |  |  | restored | restored | decrease in eEF2 phosphorylation
